The target in test [1] is T1, sigma-2 receptor/transmembrane protein 97 (TMEM97) (Rattus norvegicus, UniProt Q5U3Y7).
T1 sequence (Q5U3Y7 1-176): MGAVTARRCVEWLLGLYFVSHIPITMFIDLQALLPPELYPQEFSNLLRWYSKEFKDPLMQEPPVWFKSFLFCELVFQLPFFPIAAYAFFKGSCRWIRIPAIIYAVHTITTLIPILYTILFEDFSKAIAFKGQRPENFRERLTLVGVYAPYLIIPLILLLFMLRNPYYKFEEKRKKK
As to the kind of experiment: radioligand competition with [3H]DTG plus […]. The format is binding. A general note: Displacement assays read how much labelled ligand stays bound in the presence of the test substance.

The target of test [2] is sigma-1 receptor (Rattus norvegicus, UniProt Q9R0C9). Description: radioligand competition with [3H]-. Format: binding.
sigma-1 receptor, sequence (Q9R0C9 whole entry): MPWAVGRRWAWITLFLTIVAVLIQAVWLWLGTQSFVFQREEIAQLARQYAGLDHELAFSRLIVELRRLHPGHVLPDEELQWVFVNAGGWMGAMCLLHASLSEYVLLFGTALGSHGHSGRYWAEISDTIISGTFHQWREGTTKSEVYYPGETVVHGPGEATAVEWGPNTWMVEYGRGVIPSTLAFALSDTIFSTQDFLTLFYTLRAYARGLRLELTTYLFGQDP

As to `O=c1oc2cc(NC(=S)Nc3ccc4c(c3)oc(=O)n4CCCCN3CCN(c4ccc(F)cc4)CC3)ccc2n1CCCCN1CCN(c2ccc(F)cc2)CC1` [MAM03055A, 1,3-bis(3-(4-(4-(4-fluorophenyl)piperazin-1-yl)butyl)-2-oxo-2,3-dihydrobenzo[d]oxazol-6-yl)thiourea], the Ki (as a rule, the dissociation constant of the complex between target and ligand, obtained from inhibition or displacement) in test [1] amounted to 55.9 nM; in test [2], 3370 nM.

The values above are taken from paper PMC8736263 (European journal of pharmacology, 2021).
